Results as given in ChEMBL document CHEMBL5154747, “Discovery of new carbonic anhydrase IX inhibitors as anticancer agents by toning the hydrophobic and hydrophilic rims of the active site to encounter the dual-tail approach” (Eur J Med Chem, 2022).
pKi: −log10 of the molar value.

What was measured:
Carbonic anhydrase 9 = Carbonic anhydrase 9 (Homo sapiens, UniProt Q16790); test: Inhibition of recombinant human CA 9 preincubated for 15 mins by phenol red dye based stopped flow CO2 hydration assay
HL-60(TB) = test: Anticancer activity against human HL-60(TB) cells assessed as cell growth inhibition at 10 uM incubated for 48 hrs by SRB assay relative to control; type: functional; conditions: read-out: GI
K562 = test: Anticancer activity against human K562 cells assessed as cell growth inhibition at 10 uM incubated for 48 hrs by SRB assay relative to control; type: functional; conditions: read-out: GI
MOLT-4 = test: Anticancer activity against human MOLT-4 cells assessed as cell growth inhibition at 10 uM incubated for 48 hrs by SRB assay relative to control; type: functional; conditions: read-out: GI
SR = test: Anticancer activity against human SR cells assessed as cell growth inhibition at 10 uM incubated for 48 hrs by SRB assay relative to control; type: functional; conditions: read-out: GI
HOP-62 = test: Anticancer activity against human HOP-62 cells assessed as cell growth inhibition at 10 uM incubated for 48 hrs by SRB assay relative to control; type: functional; conditions: read-out: GI
HOP-92 = test: Anticancer activity against human HOP-92 cells assessed as cell growth inhibition at 10 uM incubated for 48 hrs by SRB assay relative to control; type: functional; conditions: read-out: GI
NCI-H23 = test: Anticancer activity against human NCI-H23 cells assessed as cell growth inhibition at 10 uM incubated for 48 hrs by SRB assay relative to control; type: functional; conditions: read-out: GI
NCI-H460 = test: Anticancer activity against human NCI-H460 cells assessed as cell growth inhibition at 10 uM incubated for 48 hrs by SRB assay relative to control; type: functional; conditions: read-out: GI
NCI-H522 = test: Anticancer activity against human NCI-H522 cells assessed as cell growth inhibition at 10 uM incubated for 48 hrs by SRB assay relative to control; type: functional; conditions: read-out: GI
HCC 2998 = test: Anticancer activity against human HCC 2998 cells assessed as cell growth inhibition at 10 uM incubated for 48 hrs by SRB assay relative to control; type: functional; conditions: read-out: GI
HCT-116 = test: Anticancer activity against human HCT-116 cells assessed as cell growth inhibition at 10 uM incubated for 48 hrs by SRB assay relative to control; type: functional; conditions: read-out: GI
HT-29 = test: Anticancer activity against human HT-29 cells assessed as cell growth inhibition at 10 uM incubated for 48 hrs by SRB assay relative to control; type: functional; conditions: read-out: GI
KM12 = test: Anticancer activity against human KM12 cells assessed as cell growth inhibition at 10 uM incubated for 48 hrs by SRB assay relative to control; type: functional; conditions: read-out: GI
SF-295 = test: Anticancer activity against human SF-295 cells assessed as cell growth inhibition at 10 uM incubated for 48 hrs by SRB assay relative to control; type: functional; conditions: read-out: GI
SF-539 = test: Anticancer activity against human SF-539 cells assessed as cell growth inhibition at 10 uM incubated for 48 hrs by SRB assay relative to control; type: functional; conditions: read-out: GI
SNB-19 = test: Anticancer activity against human SNB-19 cells assessed as cell growth inhibition at 10 uM incubated for 48 hrs by SRB assay relative to control; type: functional; conditions: read-out: GI
SNB-75 = test: Anticancer activity against human SNB-75 cells assessed as cell growth inhibition at 10 uM incubated for 48 hrs by SRB assay relative to control; type: functional; conditions: read-out: GI
Malme-3M = test: Anticancer activity against human Malme-3M cells assessed as cell growth inhibition at 10 uM incubated for 48 hrs by SRB assay relative to control; type: functional; conditions: read-out: GI
MDA-MB-435 = test: Anticancer activity against human MDA-MB-435 cells assessed as cell growth inhibition at 10 uM incubated for 48 hrs by SRB assay relative to control; type: functional; conditions: read-out: GI
SK-MEL-2 = test: Anticancer activity against human SK-MEL-2 cells assessed as cell growth inhibition at 10 uM incubated for 48 hrs by SRB assay relative to control; type: functional; conditions: read-out: GI
SK-MEL-28 = test: Anticancer activity against human SK-MEL-28 cells assessed as cell growth inhibition at 10 uM incubated for 48 hrs by SRB assay relative to control; type: functional; conditions: read-out: GI
SK-MEL-5 = test: Anticancer activity against human SK-MEL-5 cells assessed as cell growth inhibition at 10 uM incubated for 48 hrs by SRB assay relative to control; type: functional; conditions: read-out: GI
UACC-257 = test: Anticancer activity against human UACC-257 cells assessed as cell growth inhibition at 10 uM incubated for 48 hrs by SRB assay relative to control; type: functional; conditions: read-out: GI
IGROV-1 = test: Anticancer activity against human IGROV-1 cells assessed as cell growth inhibition at 10 uM incubated for 48 hrs by SRB assay relative to control; type: functional; conditions: read-out: GI
OVCAR-3 = test: Anticancer activity against human OVCAR-3 cells assessed as cell growth inhibition at 10 uM incubated for 48 hrs by SRB assay relative to control; type: functional; conditions: read-out: GI
OVCAR-5 = test: Anticancer activity against human OVCAR-5 cells assessed as cell growth inhibition at 10 uM incubated for 48 hrs by SRB assay relative to control; type: functional; conditions: read-out: GI
SK-OV-3 = test: Anticancer activity against human SK-OV-3 cells assessed as cell growth inhibition at 10 uM incubated for 48 hrs by SRB assay relative to control; type: functional; conditions: read-out: GI
ACHN = test: Anticancer activity against human ACHN cells assessed as cell growth inhibition at 10 uM incubated for 48 hrs by SRB assay relative to control; type: functional; conditions: read-out: GI
CAKI-1 = test: Anticancer activity against human CAKI-1 cells assessed as cell growth inhibition at 10 uM incubated for 48 hrs by SRB assay relative to control; type: functional; conditions: read-out: GI
RXF 393 = test: Anticancer activity against human RXF 393 cells assessed as cell growth inhibition at 10 uM incubated for 48 hrs by SRB assay relative to control; type: functional; conditions: read-out: GI
SN12C = test: Anticancer activity against human SN12C cells assessed as cell growth inhibition at 10 uM incubated for 48 hrs by SRB assay relative to control; type: functional; conditions: read-out: GI
TK-10 = test: Anticancer activity against human TK-10 cells assessed as cell growth inhibition at 10 uM incubated for 48 hrs by SRB assay relative to control; type: functional; conditions: read-out: GI
MDA-MB-231 = test: Anticancer activity against human MDA-MB-231 cells assessed as cell growth inhibition at 10 uM incubated for 48 hrs by SRB assay relative to control; type: functional; conditions: read-out: GI
Hs-578T = test: Anticancer activity against human Hs-578T cells assessed as cell growth inhibition at 10 uM incubated for 48 hrs by SRB assay relative to control; type: functional; conditions: read-out: GI
BT-549 = test: Anticancer activity against human BT-549 cells assessed as cell growth inhibition at 10 uM incubated for 48 hrs by SRB assay relative to control; type: functional; conditions: read-out: GI
T47D = test: Anticancer activity against human T47D cells assessed as cell growth inhibition at 10 uM incubated for 48 hrs by SRB assay relative to control; type: functional; conditions: read-out: GI
MDA-MB-468 = test: Anticancer activity against human MDA-MB-468 cells assessed as cell growth inhibition at 10 uM incubated for 48 hrs by SRB assay relative to control; type: functional; conditions: read-out: GI
OVCAR-4 = test: Anticancer activity against human OVCAR-4 cells assessed as cell growth inhibition at 10 uM incubated for 48 hrs by SRB assay relative to control; type: functional; conditions: read-out: GI

Structure (SMILES)	pKi (Carbonic anhydrase 9)	inhibition of growth at 10 µM (HL-60(TB))	inhibition of growth at 10 µM (K562)	inhibition of growth at 10 µM (MOLT-4)	inhibition of growth at 10 µM (SR)	inhibition of growth at 10 µM (HOP-62)	inhibition of growth at 10 µM (HOP-92)	inhibition of growth at 10 µM (NCI-H23)	inhibition of growth at 10 µM (NCI-H460)	inhibition of growth at 10 µM (NCI-H522)	inhibition of growth at 10 µM (HCC 2998)	inhibition of growth at 10 µM (HCT-116)	inhibition of growth at 10 µM (HT-29)	inhibition of growth at 10 µM (KM12)	inhibition of growth at 10 µM (SF-295)	inhibition of growth at 10 µM (SF-539)	inhibition of growth at 10 µM (SNB-19)	inhibition of growth at 10 µM (SNB-75)	inhibition of growth at 10 µM (Malme-3M)	inhibition of growth at 10 µM (MDA-MB-435)	other results
NS(=O)(=O)c1ccc(Nc2nc(N/N=C/c3ccc(F)cc3)nc(Nc3ccccc3)n2)cc1	7.21	39%	45%	78%	42%	82%	36%	45%	34%	84%	44%	55%	95%	69%	29%	37%	30%	< 10%	42%	46%	inhibition of growth at 10 µM (SK-MEL-2): 109%; inhibition of growth at 10 µM (SK-MEL-28): 36%; inhibition of growth at 10 µM (SK-MEL-5): 61%; inhibition of growth at 10 µM (UACC-257): 52%; inhibition of growth at 10 µM (IGROV-1): 56%; inhibition of growth at 10 µM (OVCAR-3): 69%; inhibition of growth at 10 µM (OVCAR-5): 24%; inhibition of growth at 10 µM (SK-OV-3): 28%; inhibition of growth at 10 µM (ACHN): 19%; inhibition of growth at 10 µM (CAKI-1): 43%; inhibition of growth at 10 µM (RXF 393): 42%; inhibition of growth at 10 µM (SN12C): 49%; inhibition of growth at 10 µM (TK-10): 98%; inhibition of growth at 10 µM (MDA-MB-231): 38%; inhibition of growth at 10 µM (Hs-578T): 59%; inhibition of growth at 10 µM (BT-549): 32%; inhibition of growth at 10 µM (T47D): 79%; inhibition of growth at 10 µM (MDA-MB-468): 45%; inhibition of growth at 10 µM (OVCAR-4): 44%
COc1ccc(/C=N/Nc2nc(Nc3ccccc3)nc(Nc3ccc(S(N)(=O)=O)cc3)n2)cc1	7.00	16%	50%	55%	51%	19%	< 10%	29%	44%	17%	12%	49%	44%	25%	29%	51%	13%	18%	18%	23%	inhibition of growth at 10 µM (SK-MEL-2): 31%; inhibition of growth at 10 µM (SK-MEL-28): 21%; inhibition of growth at 10 µM (SK-MEL-5): 25%; inhibition of growth at 10 µM (UACC-257): < 10%; inhibition of growth at 10 µM (IGROV-1): 41%; inhibition of growth at 10 µM (OVCAR-3): 38%; inhibition of growth at 10 µM (OVCAR-5): 14%; inhibition of growth at 10 µM (SK-OV-3): < 10%; inhibition of growth at 10 µM (ACHN): 24%; inhibition of growth at 10 µM (CAKI-1): 24%; inhibition of growth at 10 µM (RXF 393): 77%; inhibition of growth at 10 µM (SN12C): 19%; inhibition of growth at 10 µM (TK-10): 20%; inhibition of growth at 10 µM (MDA-MB-231): 32%; inhibition of growth at 10 µM (Hs-578T): 41%; inhibition of growth at 10 µM (BT-549): 14%; inhibition of growth at 10 µM (T47D): 36%; inhibition of growth at 10 µM (MDA-MB-468): 23%; inhibition of growth at 10 µM (OVCAR-4): 33%
